Assay results from PMC3297363 (Journal of Medicinal Chemistry, 2012).
Read-outs that look alike come from different tables or passages of the source.

Key:
[1] = tested on: 3D7 strain of P. falciparum; assay: In vitro antimalarial activity versus 3D7 P. falciparum; type: cell-based, Plasmodium falciparum
PfNDH2 = biological target: T1, PfNDH2 (Plasmodium falciparum, UniProt Q8I302); type: biochemical; conditions: PfNDH2 enzyme
T1 sequence (Q8I302 1-533): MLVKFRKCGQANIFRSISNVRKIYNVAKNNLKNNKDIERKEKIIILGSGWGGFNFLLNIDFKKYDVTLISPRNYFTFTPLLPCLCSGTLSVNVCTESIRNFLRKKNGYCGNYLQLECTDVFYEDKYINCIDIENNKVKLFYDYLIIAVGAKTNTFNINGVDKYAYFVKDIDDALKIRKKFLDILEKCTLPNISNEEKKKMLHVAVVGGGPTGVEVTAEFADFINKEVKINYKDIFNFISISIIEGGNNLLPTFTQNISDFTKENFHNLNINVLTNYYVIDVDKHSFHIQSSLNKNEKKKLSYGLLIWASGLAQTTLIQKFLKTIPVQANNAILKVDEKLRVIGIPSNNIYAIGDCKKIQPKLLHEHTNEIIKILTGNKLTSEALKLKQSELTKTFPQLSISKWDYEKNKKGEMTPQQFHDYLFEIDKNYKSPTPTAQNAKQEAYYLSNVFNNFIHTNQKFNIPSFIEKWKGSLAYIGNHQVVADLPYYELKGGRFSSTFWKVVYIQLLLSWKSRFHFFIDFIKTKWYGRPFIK

[2] = tested on: TM90C2B strain of P. falciparum; assay: In vitro antimalarial activity versus atovaquone resistant TM90C2B; type: cell-based; conditions: Plasmodium falciparum, read-out: IC50 in TM90C2B strain

## COc1cccc2[nH]c(-c3ccc(Cc4ccc(OC(F)(F)F)cc4)cc3)c(C)c(=O)c12 [6m]
[1]; Plasmodium falciparum, 3D7, read-out: IC50 (nM) 3D7 ± SD, 3D7 strain of P. falciparum, in vitro
  IC50: > 350 nM

## COc1ccc(Cc2ccc(-c3[nH]c4ccccc4c(=O)c3C)cc2)cc1 [6g]
[1]; read-out: IC50 (nM) 3D7 ± SD, 3D7 strain of P. falciparum, in vitro
  IC50: 37 nM

## O=c1c(-c2ccc(Oc3ccc(OC(F)(F)F)cc3)cc2)c(CO)[nH]c2ccccc12 [compound 25]
PfNDH2
  IC50 (nM) PfNDH2: shows no PfNDH2

## O=C1C(O)=C([C@H]2CC[C@H](c3ccc(Cl)cc3)CC2)C(=O)c2ccccc21 [atovaquone]
[2]
  IC50: 12000 nM
